Data as given in PubChem BioAssay AID248 (DTP/NCI, 2004).
Toxic doses and inconclusive results are not listed. Peptide text beside a SMILES is read from it. * marks the point of attachment. CH2Cl = ClC*

Tested on: L1210 leukemia ip in BDF1 mice, survival T/C
Assay: NCI In Vivo Anticancer Drug Screen. Data for tumor model L1210 Leukemia (intraperitoneal) in B6D2F1 (BDF1) mice
Conditions: endpoint: mean survival time, higher = longer survival
How it was run: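 Mice bearing the transplanted tumor received compound or vehicle. Survival of the treated group was divided by that of the vehicle-treated control group to give the ratio.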

[1] = dose: 50.0 mg/kg/injection, schedule: Q01DX001 (ip), vehicle: carboxymethylcellulose (CMC)
[2] = dose: 100.0 mg/kg/injection, schedule: Q01DX001 (ip), vehicle: carboxymethylcellulose (CMC)
[3] = dose: 200.0 mg/kg/injection, schedule: Q01DX001 (ip), vehicle: carboxymethylcellulose (CMC)
[4] = dose: 400.0 mg/kg/injection, schedule: Q01DX001 (ip), vehicle: carboxymethylcellulose (CMC)
[5] = dose: 100.0 mg/kg/injection, schedule: Q01DX009 (ip), vehicle: saline
[6] = dose: 200.0 mg/kg/injection, schedule: Q01DX009 (ip), vehicle: saline
[7] = dose: 400.0 mg/kg/injection, schedule: Q01DX009 (ip), vehicle: saline
[8] = dose: 100.0 mg/kg/injection, schedule: Q04DX003 (ip), vehicle: Klucel (hydroxypropylcellulose) (HPC)
[9] = dose: 200.0 mg/kg/injection, schedule: Q04DX003 (ip), vehicle: Klucel (hydroxypropylcellulose) (HPC)
[10] = dose: 400.0 mg/kg/injection, schedule: Q04DX003 (ip), vehicle: Klucel (hydroxypropylcellulose) (HPC)
[11] = dose: 100.0 mg/kg/injection, schedule: Q04DX003 (ip), vehicle: saline with Tween-80
[12] = dose: 200.0 mg/kg/injection, schedule: Q04DX003 (ip), vehicle: saline with Tween-80

With CNC(=O)Oc1cccc(N(C)C)c1 the T/C (dose: 9.5 mg/kg/injection, schedule: Q01DX001 (ip), vehicle: other) was 100 % of control and the T/C (dose: 19.0 mg/kg/injection, schedule: Q01DX001 (ip), vehicle: other) was 98 % of control.

CCOC(=O)C(C)(CCOCc1ccccc1)NC(C)=O (stereo not given) was tested, and the T/C [1] was 94 % of control, the T/C [2] was 96 % of control and the T/C [3] was 100 % of control. For the same compound, the T/C [4] was 91 % of control.

In the case of O=C1OCCC1n1ccc(=O)[nH]c1=O (stereo not given), the T/C [5] is reported as 111 % of control, the T/C [6] is reported as 105 % of control and the T/C [7] is reported as 106 % of control.

In the case of CC(C)(C)O[Si](OCC(F)(F)C(F)(F)C(F)(F)C(F)(F)C(F)(F)C(F)F)(OCC(F)(F)C(F)(F)C(F)(F)C(F)(F)C(F)(F)C(F)F)OC(C)(C)C, the T/C [1] is reported as 100 % of control, the T/C [2] is reported as 94 % of control and the T/C [3] is reported as 94 % of control. For the same compound, the T/C [4] was 94 % of control.

With Nc1nc2nc[nH]c2c(N)c1Br (tested in a mixture with another compound) the T/C (dose: 50.0 mg/kg/injection, schedule: Q01DX009 (ip), vehicle: saline) was 95 % of control, the T/C (dose: 50.0 mg/kg/injection, schedule: Q04DX003 (ip), vehicle: saline) was 96 % of control and the T/C (dose: 100.0 mg/kg/injection, schedule: Q01DX001 (ip), vehicle: saline) was 100 % of control. For the same compound, the T/C [5] was 92 % of control, the T/C (dose: 100.0 mg/kg/injection, schedule: Q04DX003 (ip), vehicle: saline) was 94 % of control and the T/C (dose: 200.0 mg/kg/injection, schedule: Q01DX001 (ip), vehicle: saline) was 97 % of control. The T/C [6] was 114 % of control and the T/C (dose: 200.0 mg/kg/injection, schedule: Q04DX003 (ip), vehicle: saline) was 105 % of control.

CC1(C)CN(CCC#N)C(c2ccc([N+](=O)[O-])cc2)O1 (stereo not given) was tested, and the T/C [1] was 106 % of control, the T/C [2] was 106 % of control and the T/C [3] was 114 % of control. The T/C [4] was 108 % of control.

CC(=O)OCC(C)(COC(C)=O)[N+](=O)[O-] was tested, and the T/C [8] was 95 % of control, the T/C [9] was 92 % of control and the T/C [10] was 97 % of control.

With [Cl][Cu][Cl] the T/C (dose: 3.13 mg/kg/injection, schedule: Q01DX009 (ip), vehicle: saline) was 100 % of control, the T/C (dose: 6.25 mg/kg/injection, schedule: Q01DX009 (ip), vehicle: saline) was 95 % of control and the T/C (dose: 6.25 mg/kg/injection, schedule: Q04DX003 (ip), vehicle: saline) was 102 % of control. The T/C (dose: 12.5 mg/kg/injection, schedule: Q01DX009 (ip), vehicle: saline) was 90 % of control and the T/C (dose: 12.5 mg/kg/injection, schedule: Q04DX003 (ip), vehicle: saline) was 107 % of control.

With CCCCCCCCCCCCCCCCOc1ccc(C(SC)=[N+]2CCCCC2)cc1OC the T/C [8] was 98 % of control, the T/C [9] was 102 % of control and the T/C [10] was 102 % of control.

For C[C@]12CC[C@H](O)C[C@H]1CC[C@@H]1[C@@H]2CC[C@]2(C)[C@@H](C3=CC(=O)OC3)[C@@H](O)C[C@]12O, the T/C [1] was 101 % of control, the T/C [2] was 107 % of control and the T/C [3] was 101 % of control. The T/C [4] was 102 % of control.

With NC(=S)N/N=C\c1ccccn1 the T/C (dose: 6.25 mg/kg/injection, schedule: Q01DX009 (ip), vehicle: saline with Tween-80) was 123 % of control, the T/C (dose: 6.25 mg/kg/injection, schedule: Q04DX003 (ip), vehicle: saline with Tween-80) was 103 % of control and the T/C (dose: 8.0 mg/kg/injection, schedule: Q01DX009 (ip), vehicle: saline with Tween-80) was 160 % of control. The T/C (dose: 12.0 mg/kg/injection, schedule: Q01DX009 (ip), vehicle: saline with Tween-80) was 165 % of control, the T/C (dose: 12.5 mg/kg/injection, schedule: Q04DX003 (ip), vehicle: saline with Tween-80) was 102 % of control and the T/C (dose: 25.0 mg/kg/injection, schedule: Q04DX003 (ip), vehicle: saline with Tween-80) was 98 % of control.

For OCCOCC#CCOCCO, the T/C [5] was 102 % of control, the T/C [6] was 96 % of control and the T/C [7] was 98 % of control.

NCCSSCCN was tested, and the T/C (dose: 24.0 mg/kg/injection, schedule: Q04DX002 (ip), vehicle: saline with Tween-80) was 98 % of control, the T/C (dose: 60.0 mg/kg/injection, schedule: Q04DX002 (ip), vehicle: saline with Tween-80) was 95 % of control and the T/C (dose: 100.0 mg/kg/injection, schedule: Q04DX002 (ip), vehicle: saline) was 93 % of control. For the same compound, the T/C (dose: 150.0 mg/kg/injection, schedule: Q04DX002 (ip), vehicle: saline with Tween-80) was 91 % of control and the T/C (dose: 200.0 mg/kg/injection, schedule: Q04DX002 (ip), vehicle: saline) was 107 % of control.

With CCc1c(Nc2ccc(C)cc2)[nH]c(N)nc1=S the T/C (dose: 200.0 mg/kg/injection, schedule: Q01DX Z (ip), vehicle: methylcellulose (MC)) was 89 % of control.

For CC(C)(C)SC1CC(=O)OC1=O (stereo not given), the T/C (dose: 87.5 mg/kg/injection, schedule: Q04DX003 (ip), vehicle: saline with Tween-80) was 102 % of control, the T/C (dose: 175.0 mg/kg/injection, schedule: Q04DX003 (ip), vehicle: saline with Tween-80) was 106 % of control and the T/C (dose: 350.0 mg/kg/injection, schedule: Q04DX003 (ip), vehicle: saline with Tween-80) was 109 % of control.

In the case of Oc1ccc(C(=S)N2CCOCC2)cc1, the T/C [8] is reported as 97 % of control, the T/C [9] is reported as 97 % of control and the T/C [10] is reported as 98 % of control.

COC(=O)Cc1c[nH]c(=O)[nH]c1=O was tested, and the T/C (dose: 100.0 mg/kg/injection, schedule: Q01DX009 (ip), vehicle: water) was 102 % of control, the T/C (dose: 100.0 mg/kg/injection, schedule: Q04DX003 (ip), vehicle: water) was 93 % of control and the T/C (dose: 200.0 mg/kg/injection, schedule: Q01DX009 (ip), vehicle: water) was 98 % of control. For the same compound, the T/C (dose: 200.0 mg/kg/injection, schedule: Q04DX003 (ip), vehicle: water) was 104 % of control and the T/C (dose: 400.0 mg/kg/injection, schedule: Q04DX003 (ip), vehicle: water) was 95 % of control.

In the case of CC(=O)NC(CC(C)C)C(=O)NC(Cc1ccccc1)C(=O)CCl (stereo not drawn) (Ac-Leu-Phe-CH2Cl; configuration not given here), the T/C (dose: 100.0 mg/kg/injection, schedule: Q04DX002 (ip), vehicle: Klucel (hydroxypropylcellulose) (HPC)) is reported as 94 % of control, the T/C (dose: 200.0 mg/kg/injection, schedule: Q04DX002 (ip), vehicle: Klucel (hydroxypropylcellulose) (HPC)) is reported as 98 % of control and the T/C (dose: 400.0 mg/kg/injection, schedule: Q04DX002 (ip), vehicle: Klucel (hydroxypropylcellulose) (HPC)) is reported as 102 % of control.

With O=Cc1ccc(C(=O)O)cc1 the T/C [11] was 98 % of control, the T/C [12] was 96 % of control and the T/C (dose: 400.0 mg/kg/injection, schedule: Q04DX003 (ip), vehicle: saline with Tween-80) was 95 % of control.

With CB1N(c2ccccc2)B(C)N(c2ccccc2)B(C)N1c1ccccc1 the T/C [8] was 103 % of control, the T/C [9] was 93 % of control and the T/C [10] was 97 % of control.

Cc1cc(C(=O)c2ccccn2)c2cccc(C(F)(F)F)c2n1 was tested, and the T/C (dose: 50.0 mg/kg/injection, schedule: Q01DX009 (ip), vehicle: saline with Tween-80) was 94 % of control, the T/C (dose: 100.0 mg/kg/injection, schedule: Q01DX009 (ip), vehicle: saline with Tween-80) was 102 % of control and the T/C [11] was 92 % of control. For the same compound, the T/C (dose: 200.0 mg/kg/injection, schedule: Q01DX009 (ip), vehicle: saline with Tween-80) was 100 % of control and the T/C [12] was 88 % of control.

With O=C(Nc1ccc(Cl)cc1)c1ccc([N+](=O)[O-])cc1 the T/C (dose: 100.0 mg/kg/injection, schedule: Q04DX002 (ip), vehicle: gum acacia) was 106 % of control, the T/C (dose: 200.0 mg/kg/injection, schedule: Q04DX002 (ip), vehicle: gum acacia) was 102 % of control and the T/C (dose: 400.0 mg/kg/injection, schedule: Q04DX002 (ip), vehicle: gum acacia) was 98 % of control.

With O=[N+]([O-])c1cc([N+](=O)[O-])c2ccc(S(=O)(=O)O)cc2c1O the T/C (dose: 20.0 mg/kg/injection, schedule: Q01DX009 (ip), vehicle: Klucel (hydroxypropylcellulose) (HPC)) was 97 % of control, the T/C (dose: 20.0 mg/kg/injection, schedule: Q04DX003 (ip), vehicle: Klucel (hydroxypropylcellulose) (HPC)) was 110 % of control and the T/C (dose: 40.0 mg/kg/injection, schedule: Q01DX009 (ip), vehicle: Klucel (hydroxypropylcellulose) (HPC)) was 100 % of control. The T/C (dose: 40.0 mg/kg/injection, schedule: Q04DX003 (ip), vehicle: Klucel (hydroxypropylcellulose) (HPC)) was 109 % of control, the T/C (dose: 80.0 mg/kg/injection, schedule: Q01DX009 (ip), vehicle: Klucel (hydroxypropylcellulose) (HPC)) was 103 % of control and the T/C (dose: 80.0 mg/kg/injection, schedule: Q04DX003 (ip), vehicle: Klucel (hydroxypropylcellulose) (HPC)) was 105 % of control. The T/C [8] was 106 % of control.
